{
  "source": "ChEMBL document CHEMBL1143735",
  "about": "“Synthesis, anti-HIV activity, and resistance profile of thymidine phosphonomethoxy nucleosides and their bis-isopropyloxymethylcarbonyl (bisPOC) prodrugs” (Bioorg Med Chem, 2007)",
  "key": {"[1]": {"test_system": "Human immunodeficiency virus 1", "test": "Antiviral activity against HIV with reverse transcriptase M184V mutation assessed as reduction of potency relative to wild type", "assay_type": "functional"}, "[2]": {"test_system": "Human immunodeficiency virus 1", "test": "Inhibition of virus-induced cytopathic effect in wild type HIV 3a infected MT2 cells after 5 days", "assay_type": "functional, organism-based", "settings": "Human immunodeficiency virus 1, 3a, MT2, 120 h"}, "[3]": {"target": "Human immunodeficiency virus type 1 reverse transcriptase (Human immunodeficiency virus 1, UniProt Q72547)", "test": "Inhibition of HIV1 reverse transcriptase"}, "[4]": {"test": "Cytotoxicity against MT2 cells", "assay_type": "cell-based", "settings": "human"}, "[5]": {"test_system": "Human immunodeficiency virus 1", "test": "Antiviral activity against HIV1 with reverse transcriptase 6TAM mutation assessed as reduction of potency relative to wild type", "assay_type": "functional"}, "[6]": {"test_system": "Human immunodeficiency virus 1", "test": "Antiviral activity against HIV1 with reverse transcriptase K65R mutation assessed as reduction of potency relative to wild type", "assay_type": "functional"}},
  "data": [
    {"smiles": "Cc1cn([C@H]2C=C[C@@H](OCP(=O)(O)O)O2)c(=O)[nH]c1=O", "values": [
      {"measurement": "Fold change", "setting": "[1]", "value": 1.1},
      {"measurement": "EC50", "setting": "[2]", "value": 26, "unit": "µM"},
      {"measurement": "IC50", "setting": "[3]", "value": 0.39, "unit": "µM"},
      {"measurement": "CC50", "setting": "[4]", "value": "> 500", "unit": "µM"},
      {"measurement": "Fold change", "setting": "[5]", "value": 13},
      {"measurement": "Fold change", "setting": "[6]", "value": 5.2}
    ]},
    {"smiles": "Cc1cn([C@H]2CC[C@@H](OCP(=O)(O)O)O2)c(=O)[nH]c1=O", "values": [
      {"measurement": "EC50", "setting": "[2]", "value": "> 200", "unit": "µM"},
      {"measurement": "IC50", "setting": "[3]", "value": 5.4, "unit": "µM"},
      {"measurement": "CC50", "setting": "[4]", "value": "> 500", "unit": "µM"}
    ]},
    {"smiles": "Cc1cn([C@H]2CC[C@@H](OCP(=O)(OCOC(=O)OC(C)C)OCOC(=O)OC(C)C)O2)c(=O)[nH]c1=O", "values": [
      {"measurement": "EC50", "setting": "[2]", "value": 1.3, "unit": "µM"},
      {"measurement": "CC50", "setting": "[4]", "value": "> 50", "unit": "µM"}
    ]},
    {"smiles": "Cc1cn([C@H]2CC[C@@H](OCP(=O)(O)O)O2)c(=O)[nH]c1=O.O=P(O)(O)OP(=O)(O)O", "values": [
      {"measurement": "EC50", "setting": "[2]", "value": "> 200", "unit": "µM"},
      {"measurement": "IC50", "setting": "[3]", "value": 5.4, "unit": "µM"},
      {"measurement": "CC50", "setting": "[4]", "value": "> 500", "unit": "µM"}
    ]},
    {"smiles": "Cc1cn([C@H]2C[C@H](N=[N+]=[N-])[C@@H](OCP(=O)(O)O)O2)c(=O)[nH]c1=O", "values": [
      {"measurement": "EC50", "setting": "[2]", "value": "> 200", "unit": "µM"}
    ]},
    {"smiles": "Cc1cn([C@H]2C=C[C@@H](OCP(=O)(OCOC(=O)OC(C)C)OCOC(=O)OC(C)C)O2)c(=O)[nH]c1=O", "values": [
      {"measurement": "EC50", "setting": "[2]", "value": 0.91, "unit": "µM"},
      {"measurement": "CC50", "setting": "[4]", "value": 10, "unit": "µM"}
    ]},
    {"smiles": "Cc1cn([C@H]2CC[C@@H](CO)O2)c(=O)[nH]c1=O", "values": [
      {"measurement": "EC50", "setting": "[2]", "value": "> 200", "unit": "µM"},
      {"measurement": "IC50", "setting": "[3]", "value": 0.12, "unit": "µM"}
    ]},
    {"smiles": "Cc1cn([C@H]2C=C[C@@H](COP(=O)(O)OP(=O)(O)OP(=O)(O)O)O2)c(=O)[nH]c1=O", "note": "[STAVUDINE TRIPHOSPHATE]", "values": [
      {"measurement": "Fold change", "setting": "[1]", "value": 1.1},
      {"measurement": "EC50", "setting": "[2]", "value": 26, "unit": "µM"},
      {"measurement": "IC50", "setting": "[3]", "value": 0.39, "unit": "µM"},
      {"measurement": "CC50", "setting": "[4]", "value": "> 500", "unit": "µM"},
      {"measurement": "Fold change", "setting": "[5]", "value": 13},
      {"measurement": "Fold change", "setting": "[6]", "value": 5.2}
    ]},
    {"smiles": "Cc1cn([C@H]2C=C[C@@H](CO)O2)c(=O)[nH]c1=O", "note": "[STAVUDINE]", "values": [
      {"measurement": "Fold change", "setting": "[1]", "value": 1.2},
      {"measurement": "EC50", "setting": "[2]", "value": 4.8, "unit": "µM"},
      {"measurement": "IC50", "setting": "[3]", "value": 0.06, "unit": "µM"},
      {"measurement": "CC50", "setting": "[4]", "value": 286, "unit": "µM"},
      {"measurement": "Fold change", "setting": "[5]", "value": 5.5},
      {"measurement": "Fold change", "setting": "[6]", "value": 2.3}
    ]},
    {"smiles": "C[C@H](Cn1cnc2c(N)ncnc21)OCP(=O)(O)O", "note": "[TENOFOVIR ANHYDROUS]", "values": [
      {"measurement": "Fold change", "setting": "[1]", "value": 0.7},
      {"measurement": "IC50", "setting": "[3]", "value": 0.38, "unit": "µM"},
      {"measurement": "CC50", "setting": "[4]", "value": "> 200", "unit": "µM"},
      {"measurement": "Fold change", "setting": "[5]", "value": 8.8},
      {"measurement": "Fold change", "setting": "[6]", "value": 4.3}
    ]},
    {"smiles": "CC(C)OC(=O)OCOP(=O)(CO[C@H](C)Cn1cnc2c(N)ncnc21)OCOC(=O)OC(C)C.O=C(O)/C=C/C(=O)O", "note": "[TENOFOVIR DISOPROXIL FUMARATE]", "values": [
      {"measurement": "EC50", "setting": "[2]", "value": 0.015, "unit": "µM"},
      {"measurement": "CC50", "setting": "[4]", "value": "> 50", "unit": "µM"},
      {"measurement": "Fold change", "setting": "[5]", "value": 7.7},
      {"measurement": "Fold change", "setting": "[6]", "value": 3.1}
    ]},
    {"smiles": "Cc1cn([C@H]2C[C@H](N=[N+]=[N-])[C@@H](CO)O2)c(=O)[nH]c1=O", "note": "[ZIDOVUDINE]", "values": [
      {"measurement": "CC50", "setting": "[4]", "value": "> 200", "unit": "µM"}
    ]}
  ]
}
